Entries after “also recorded” stand apart in the source; their conditions may differ. Counter-ions that a name gives are not always drawn.
What was measured:
[1] = system: M. tuberculosis isolate 571/573-BAL; experiment: Detergent screen for induced susceptibility, BACTEC 12B growth curves; type: cell-based, Mycobacterium tuberculosis; details: for RESULT (effect on growth): 571/573-BAL, detergent approximately 17 μg/ml final, BACTEC 12B supplemented with PANTA or P/cax (ceftriaxone 8 μg/ml); for CB-18 effect in the methods of the invention: carboxybetaines tested
[2] = system: M. tuberculosis isolates ATCC 27294 and 571/573-BAL; experiment: Further studies of the range of activity of betaines; type: cell-based, Mycobacterium tuberculosis
Source text: FIGS. 32A and 32B show the variability when simple (i.e., unmodified) carboxybetaines with methylene (Detain PB and Velvetex OLB), ethylene (C18-carboxyethylbetaine), and propylene (CB-18) bridges were employed in this assay. This is consistent with the data of Tsubone K. et al., Jour. Pharm. Sci. 80:441–444 (1991) wherein toxicity is correlated with bridge length.
While the apparent bactericidal activity of the amine oxide was anticipated based on the use of these compounds in antimicrobial formulations (Michaels, E. B., U.S. Pat. No. 564,454 and U.S. Pat. No. 641,728), the activity of the Brij compounds and Crosultaine E-30 was surprising. […] Crosultaine E-30 has both an amidopropyl linkage and a hydroxypropyl bridge. […] Historically, the nonionic detergents have been reported to be contaminated with impurities, and only when purified stimulate growth (Dubos, R. J. et al., Jour. Exptl. Med. 83:409–423 (1946)). Impurities might explain the results with the Brij detergents and Crosultaine E-30.

[3] = system: M. tuberculosis isolates ATCC 27294 and 571/573-BAL; experiment: CB-18 vs. EDTA, BACTEC 12B growth curves; type: cell-based, Mycobacterium tuberculosis
[4] = system: M. tuberculosis isolates ATCC 27294 and 571/573-BAL; experiment: CB-18 and TMA-18 comparison, BACTEC 12B growth curves; type: cell-based, Mycobacterium tuberculosis
Description: If the mechanism of CB-18's action was similar to that of the quaternary salts (i.e., generally deleterious), then some delay would be anticipated. For example, if the CB-18 effect was a consequence of the surface active property of the detergent, then disruption of cellular function would not only have nonspecific long term consequences, but would also be independent of the isolate. In an effort to examine the similarity in the mechanism, CB-18 was assayed in parallel with trimethyloctadecylammonium bromide (TMA-18 (Aldrich, Milwaukee, Wis., Cat.# 35,924-6): made as a 100× stock in 1:1, water:isopropanol similar to that described for CB-18 in Example 1). The experimental design is outlined in FIG. 6.
In this experiment both ATCC 27294 and 571/573-BAL were cultivated on 7H11-selective media, and then serially diluted in NALC/citrate to 10,000×. The planting solution (i.e., the final dilution (50,000×)) was manufactured by diluting into either buffer, 0.5 mM CB-18, or 0.1 mM TMA-18 (all concentrations represent the final detergent concentration in the planting solution). […] The final concentration of CB-18 during incubation was approximately 17 μg/ml. The final concentration of TMA-18 during incubation was approximately 3.4 μg/ml. […] FIGS. 7A–7C show one experiment wherein ATCC 27294 cells were planted in the different solutions described above, and FIGS. 8A–8C show a parallel experiment wherein 571/573-BAL cells were planted in the same series.

[5] = system: M. fortuitum complex isolates ATCC 6841 and 495-JHH; experiment: CB-18 titration, BACTEC 12B growth curves; type: cell-based; details: M. fortuitum 495-JHH; cefoxitin (8 μg/ml in PANTA) without CB-18
[6] = system: M. tuberculosis isolate 571/573-BAL; experiment: Planting in lecithin at low inocula, BACTEC 12B growth curves; type: cell-based, Mycobacterium tuberculosis
Source text: In this experiment the 571/573-BAL isolate was cultivated on 7H11-selective media, serially diluted in NALC/citrate to approximately 1,000×. In an attempt to examine how the inoculum impacted the results of this assay three different stocks were manufactured, one series in buffer and one series in CB-18. […] The planting solutions were manufactured by mixing these three stocks 1:1 with either buffer or a buffered solution of lecithin (Sigma, St. Louis, Mo.; Cat.#: P 5394 (7.5% lecithin was made up as a 100× concentrate in 100% ethanol (3 grams in 40 mls) and diluted in the Tris buffer of Example 1 immediately prior to use)). The final dilutions of three different planting solutions were approximately 5000×, 25,000×, and 100,000×. The final concentration of CB-18 and lecithin in the appropriate planting solutions was approximately 0.5 mM. […] The final concentration of both lecithin and CB-18 during incubation was approximately 17 μg/ml.
Aliquots of the three stocks (i.e., 2,500×, 12,500× and 50,000×) were also taken for quantitative culture by plating on 7H10 plates (Becton Dickinson, Cockeysville, Md.). […] FIG. 5A presents the 5,000× series planted in either buffer or buffer containing lecithin, and FIG. 5B presents the 5,000× series planted in CB-18 or CB-18 combined with lecithin. FIG. 5C presents the 25,000× series planted in either buffer or buffer containing lecithin, and FIG. 5D presents the 25,000× series planted in CB-18 or CB-18 combined with lecithin. FIG. 5E presents the 100,000× series planted in either buffer or buffer containing lecithin, and FIG. 5F presents the 100,000× series planted in CB-18 or CB-18 combined with lecithin.

Compound | RESULT (effect on growth) [1] | other results
CCCCCCCCCCCCCCCCCC[N+](C)(C)Cc1ccccc1.[Cl-] [Benzyldimethyl-stearyl ammonium chloride, benzyldimethyl-stearyl ammonium chloride, reference compound] | Complete suppression of growth | –
CCCCCCCCCCCCCCCC[N+](C)(C)CC(O)CS(=O)(=O)[O-] (stereo not shown) [C16-hydroxypropyl-sulfobetaine] | Slight delay in growth | –
CCCCCCCCCCCCCCCCCC[N+](C)(C)CCC(=O)[O-] [C18-carboxyethylbetaine, N-(2-carboxyethyl)-N,N-dimethyl-1-octadecanaminium, inner salt] | strong ability to suppress growth when combined with antibiotics; also recorded: Complete suppression of growth | CB-18 effect in the methods of the invention [1]: show the CB-18 effect; range of activity ([2]; ATCC 27294): 7 to 13 µg/mL
CCCCCCCCCCCCCCCCCC[N+](C)(C)CCCCS(=O)(=O)[O-] [C18-sulfobutylbetaine] | Slight delay in growth | –
C[C@H](CCC(=O)NCCC[N+](C)(C)CCCS(=O)(=O)[O-])[C@H]1CC[C@H]2[C@@H]3[C@H](O)C[C@@H]4C[C@H](O)CC[C@]4(C)[C@H]3C[C@H](O)[C@]12C [CHAPS, reference compound] | No effect | –
CCCCCCCCCCCCCCCC[N+](C)(C)CC(=O)[O-] [DeTaine PB, cetyl-carboxymethylbetaine] | Strong suppression of growth | CB-18 effect in the methods of the invention [1]: show the CB-18 effect
C[C@H](CCC(=O)O)[C@H]1CC[C@H]2[C@@H]3CC[C@@H]4C[C@H](O)CC[C@]4(C)[C@H]3C[C@H](O)[C@]12C [Deoxycholic acid, deoxycholic acid, reference compound] | No effect | –
O=C(O)CN(CCN(CC(=O)O)CC(=O)O)CC(=O)O [EDTA] | – | effect on growth characteristics ([3]; ATCC 27294 and 571/573-BAL, EDTA approximately 17 μg/ml, R.F. or P/cax): no effect
[Cl-].[Cl-].[Mg+2] [MgCl2, reference compound] | – | effect on growth character in the presence of CB-18 ([3]; 571/573-BAL, five-fold molar excess of MgCl2 (85 μg/ml) added to CB-18 17 μg/ml, R.F.): no improvement; effect on the detrimental effects of the CB-18/P-cax combination ([3]; MgCl2 85 μg/ml added to CB-18 17 μg/ml with P-cax, both isolates, especially 571/573-BAL): alleviate, to some degree
CCCCCCCCCCCCCCCC(=O)O [Palmitic acid, palmitic acid, reference compound] | No effect | –
CCCCCCCCCCCCCCCCCC[N+](C)(C)CCCS(=O)(=O)[O-] [SB-18, N-octadecyl-N,N-dimethyl-3-ammonio-1-propane-sulfonate] | significant activity; also recorded: Modest suppression | range of activity ([2]; 571/573-BAL): 20 to 75 µg/mL
CCCCCCCCCCCCCCCCCC(=O)O [Stearic acid, stearic acid, reference compound] | No effect | –
CCCCCCCCCCCCCCCCCC[N+](C)(C)C.[Br-] [TMA-18, trimethyloctadecylammonium bromide, reference compound] | Complete suppression of growth | effect on growth ([4]; 571/573-BAL, 3.4 μg/ml TMA-18, R.F., PANTA or P/cax): significant delays were observed in all bottles; effect on growth ([4]; ATCC 27294, 3.4 μg/ml TMA-18, R.F., PANTA or P/cax): significant delays in all bottles; effect on growth ([4]; ATCC 27294 and 571/573-BAL, TMA-18 3.4 μg/ml (FIGS. 7C and 8C)): bacteriostatic in isolation; also recorded: inhibitory at low concentrations
CCCCCCCCCCCCCC[N+](C)(C)Cc1ccccc1.[Cl-] [benzyldimethyl-tetradecyl ammonium chloride, reference compound] | Complete suppression of growth | –
CO[C@@]1(NC(=O)Cc2cccs2)C(=O)N2C(C(=O)O)=C(COC(N)=O)CS[C@@H]21 [cefoxitin, reference compound] | – | effect on growth [5]: unaffected
C16-amidopropyl-sulfatobetaine | No effect | –
cetyl-(poyoxyethylene)10 [Brij 56, reference compound] | significantly suppress growth; also recorded: Very strong suppression of growth | –
erucamidopropyl hydroxypropyl sulfobetaine [Crosultaine E-30] | Strong suppression of growth | RESULT (effect on growth) ([1]; listed as Crosultaine E30): significantly suppress growth
oleyl-(poyoxyethylene)10 [Brij 97, reference compound] | significantly suppress growth; also recorded: Very strong suppression of growth | –
oleyl-carboxymethylbetaine [Velvetex OLB-50] | Very strong suppression of growth | CB-18 effect in the methods of the invention [1]: show the CB-18 effect
phosphatidylcholine [lecithin] | – | ability to overcome the detrimental effect of CB-18 ([6]; lecithin and CB-18 approximately 17 μg/ml each, CB-18 alone and in combination with antibiotics): able to overcome the detrimental effect of CB-18; ability to overcome the deleterious effect of the antibiotic formulation (P/caz) ([6]; lecithin approximately 17 μg/ml, absence of CB-18): ability to overcome, to some degree; impact on the sensitivity of the BACTEC 12B assay ([6]; lecithin approximately 17 μg/ml, no CB-18): little if any impact
stearylamidopropyl-carboxybetaine [Schercotaine IAB] | No effect | –

— patent US7067500B2, “Betaines as adjuvants to susceptibility testing and antimicrobial therapy” (priority 1997, dated 2006)
